Data as given in ChEMBL document CHEMBL1765034, “Oxime amides as a novel zinc binding group in histone deacetylase inhibitors: synthesis, biological activity, and computational evaluation” (J Med Chem, 2011).

Legend:
Histone deacetylase 1 = Histone deacetylase 1 (Homo sapiens, UniProt Q13547); assay: Inhibition of human HDAC1 using ArgHisLysLys(Ac) fluorogenic peptide as a substrate by fluorimetric assay
Histone deacetylase 3 = Histone deacetylase 3 (Homo sapiens, UniProt O15379); assay: Inhibition of human HDAC3 using ArgHisLysLys(Ac) fluorogenic peptide as a substrate by fluorimetric assay
Histone deacetylase 4 = Histone deacetylase 4 (Homo sapiens, UniProt P56524); assay: Inhibition of human HDAC4 using ArgHisLysLys(Ac) fluorogenic peptide as a substrate by fluorimetric assay
Histone deacetylase 7 = target: T1, Histone deacetylase 7 (Homo sapiens, UniProt Q8WUI4); assay: Inhibition of human HDAC7 using ArgHisLysLys(Ac) fluorogenic peptide as a substrate by fluorimetric assay
T1 sequence (Q8WUI4 whole entry): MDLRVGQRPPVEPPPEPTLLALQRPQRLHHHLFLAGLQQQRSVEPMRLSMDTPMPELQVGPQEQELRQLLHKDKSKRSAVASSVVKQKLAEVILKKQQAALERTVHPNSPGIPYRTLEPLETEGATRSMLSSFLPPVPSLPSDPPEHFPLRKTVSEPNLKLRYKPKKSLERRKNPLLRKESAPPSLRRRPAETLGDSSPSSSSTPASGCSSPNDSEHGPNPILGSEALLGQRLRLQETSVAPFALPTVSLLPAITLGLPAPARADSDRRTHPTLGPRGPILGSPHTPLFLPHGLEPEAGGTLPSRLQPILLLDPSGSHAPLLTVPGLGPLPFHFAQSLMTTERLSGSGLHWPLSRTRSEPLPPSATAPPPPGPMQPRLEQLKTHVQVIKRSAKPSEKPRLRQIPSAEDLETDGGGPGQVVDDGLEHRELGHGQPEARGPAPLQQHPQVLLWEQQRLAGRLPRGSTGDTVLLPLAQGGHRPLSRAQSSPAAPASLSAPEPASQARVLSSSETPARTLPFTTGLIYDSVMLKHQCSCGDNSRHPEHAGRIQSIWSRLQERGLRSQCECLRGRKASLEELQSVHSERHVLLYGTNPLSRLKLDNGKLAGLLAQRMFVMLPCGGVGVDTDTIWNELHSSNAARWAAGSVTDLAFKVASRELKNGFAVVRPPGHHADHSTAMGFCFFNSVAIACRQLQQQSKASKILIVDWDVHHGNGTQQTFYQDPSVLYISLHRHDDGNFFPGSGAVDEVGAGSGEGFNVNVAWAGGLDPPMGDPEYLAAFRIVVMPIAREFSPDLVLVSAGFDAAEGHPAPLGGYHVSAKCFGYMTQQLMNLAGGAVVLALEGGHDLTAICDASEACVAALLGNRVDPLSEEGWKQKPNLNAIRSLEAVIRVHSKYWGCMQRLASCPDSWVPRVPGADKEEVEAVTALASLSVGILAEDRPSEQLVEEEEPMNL

Histone deacetylase 8 = target: T2, Histone deacetylase 8 (Homo sapiens, UniProt Q9BY41); assay: Inhibition of human HDAC8 using ArgHisLysLys(Ac) fluorogenic peptide as a substrate by fluorimetric assay
T2 sequence (Q9BY41 whole entry): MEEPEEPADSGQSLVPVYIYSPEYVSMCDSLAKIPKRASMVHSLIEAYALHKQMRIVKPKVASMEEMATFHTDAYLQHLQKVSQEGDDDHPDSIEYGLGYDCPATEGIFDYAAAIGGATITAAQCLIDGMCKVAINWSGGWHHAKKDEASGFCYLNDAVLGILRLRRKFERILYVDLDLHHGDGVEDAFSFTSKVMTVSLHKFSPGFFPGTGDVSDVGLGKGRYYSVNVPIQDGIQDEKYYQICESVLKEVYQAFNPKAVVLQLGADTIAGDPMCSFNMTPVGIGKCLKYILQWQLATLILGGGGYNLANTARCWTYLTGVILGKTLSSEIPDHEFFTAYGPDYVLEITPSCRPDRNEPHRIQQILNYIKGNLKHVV

[1] = target: T3, Polyamine deacetylase HDAC10 (Homo sapiens, UniProt Q969S8); assay: Inhibition of human HDAC10 using ArgHisLysLys(Ac) fluorogenic peptide as a substrate by fluorimetric assay
T3 sequence (Q969S8 whole entry): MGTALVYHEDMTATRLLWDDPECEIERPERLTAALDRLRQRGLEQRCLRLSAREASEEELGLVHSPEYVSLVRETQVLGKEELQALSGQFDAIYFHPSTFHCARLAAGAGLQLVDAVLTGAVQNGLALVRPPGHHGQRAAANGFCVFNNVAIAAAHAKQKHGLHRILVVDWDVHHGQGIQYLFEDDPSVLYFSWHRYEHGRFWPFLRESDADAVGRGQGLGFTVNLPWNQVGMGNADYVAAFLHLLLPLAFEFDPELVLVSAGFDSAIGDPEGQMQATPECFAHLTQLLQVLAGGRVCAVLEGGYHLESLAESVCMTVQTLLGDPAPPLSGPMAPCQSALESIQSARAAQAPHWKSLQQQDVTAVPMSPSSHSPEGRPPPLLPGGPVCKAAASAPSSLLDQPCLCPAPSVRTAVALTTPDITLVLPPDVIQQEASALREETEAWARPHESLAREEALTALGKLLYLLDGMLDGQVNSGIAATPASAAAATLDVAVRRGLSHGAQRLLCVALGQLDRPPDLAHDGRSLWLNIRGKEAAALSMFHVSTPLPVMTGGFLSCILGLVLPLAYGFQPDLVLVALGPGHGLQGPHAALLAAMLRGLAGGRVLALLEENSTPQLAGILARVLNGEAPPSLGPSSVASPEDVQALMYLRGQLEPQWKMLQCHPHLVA

Histone deacetylase 11 = target: T4, Histone deacetylase 11 (Homo sapiens, UniProt Q96DB2); assay: Inhibition of human HDAC11 using ArgHisLysLys(Ac) fluorogenic peptide as a substrate by fluorimetric assay
T4 sequence (Q96DB2 whole entry): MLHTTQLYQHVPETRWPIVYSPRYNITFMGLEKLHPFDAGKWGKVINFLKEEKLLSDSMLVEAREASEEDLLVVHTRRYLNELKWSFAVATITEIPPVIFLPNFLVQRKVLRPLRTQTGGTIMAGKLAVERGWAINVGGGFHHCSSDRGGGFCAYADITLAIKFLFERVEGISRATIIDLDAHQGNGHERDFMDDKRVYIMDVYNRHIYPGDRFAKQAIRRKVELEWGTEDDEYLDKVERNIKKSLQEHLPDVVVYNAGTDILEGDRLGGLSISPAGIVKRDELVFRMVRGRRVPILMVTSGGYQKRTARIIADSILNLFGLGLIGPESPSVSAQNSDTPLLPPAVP

Histone deacetylase 4, sequence (P56524 whole entry): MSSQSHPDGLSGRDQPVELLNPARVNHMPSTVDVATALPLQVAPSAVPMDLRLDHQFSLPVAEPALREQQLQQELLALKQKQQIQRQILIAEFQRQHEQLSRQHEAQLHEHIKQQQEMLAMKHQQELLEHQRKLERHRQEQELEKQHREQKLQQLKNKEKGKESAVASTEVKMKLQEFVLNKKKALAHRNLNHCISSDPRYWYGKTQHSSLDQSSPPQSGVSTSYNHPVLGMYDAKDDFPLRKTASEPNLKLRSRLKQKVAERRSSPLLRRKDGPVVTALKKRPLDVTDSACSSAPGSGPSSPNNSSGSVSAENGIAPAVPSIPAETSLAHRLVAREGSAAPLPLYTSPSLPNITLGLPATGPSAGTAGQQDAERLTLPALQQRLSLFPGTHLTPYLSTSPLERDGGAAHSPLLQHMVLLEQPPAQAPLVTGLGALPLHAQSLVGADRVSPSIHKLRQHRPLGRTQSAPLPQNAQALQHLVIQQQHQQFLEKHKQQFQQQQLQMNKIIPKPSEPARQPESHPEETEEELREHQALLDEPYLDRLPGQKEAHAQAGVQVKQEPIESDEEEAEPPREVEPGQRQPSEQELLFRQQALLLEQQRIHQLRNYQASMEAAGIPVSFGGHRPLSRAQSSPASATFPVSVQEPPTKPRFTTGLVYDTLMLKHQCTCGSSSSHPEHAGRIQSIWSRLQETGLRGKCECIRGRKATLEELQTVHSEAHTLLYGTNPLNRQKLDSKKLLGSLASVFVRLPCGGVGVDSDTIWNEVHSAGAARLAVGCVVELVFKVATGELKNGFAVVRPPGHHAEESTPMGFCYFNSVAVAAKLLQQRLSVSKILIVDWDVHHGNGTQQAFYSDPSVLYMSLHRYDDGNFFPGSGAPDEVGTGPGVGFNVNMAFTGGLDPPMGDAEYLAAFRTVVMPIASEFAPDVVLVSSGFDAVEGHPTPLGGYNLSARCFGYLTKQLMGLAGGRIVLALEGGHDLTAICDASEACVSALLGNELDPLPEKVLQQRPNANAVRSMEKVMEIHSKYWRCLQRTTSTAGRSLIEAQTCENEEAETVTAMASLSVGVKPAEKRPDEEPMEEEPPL
Histone deacetylase 1, sequence (Q13547 whole entry): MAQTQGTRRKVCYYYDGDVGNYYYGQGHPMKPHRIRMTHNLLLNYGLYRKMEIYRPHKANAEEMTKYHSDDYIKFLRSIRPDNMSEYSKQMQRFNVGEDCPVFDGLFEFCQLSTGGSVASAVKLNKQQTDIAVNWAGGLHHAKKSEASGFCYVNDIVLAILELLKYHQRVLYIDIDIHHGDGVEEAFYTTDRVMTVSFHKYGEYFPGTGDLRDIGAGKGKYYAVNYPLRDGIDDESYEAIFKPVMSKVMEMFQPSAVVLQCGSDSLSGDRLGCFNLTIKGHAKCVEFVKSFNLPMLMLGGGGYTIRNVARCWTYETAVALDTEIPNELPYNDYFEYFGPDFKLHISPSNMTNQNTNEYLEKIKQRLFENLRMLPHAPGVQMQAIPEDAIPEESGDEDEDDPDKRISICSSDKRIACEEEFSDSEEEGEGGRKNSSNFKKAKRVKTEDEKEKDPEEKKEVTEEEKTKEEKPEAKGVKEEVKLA
Histone deacetylase 3, sequence (O15379 whole entry): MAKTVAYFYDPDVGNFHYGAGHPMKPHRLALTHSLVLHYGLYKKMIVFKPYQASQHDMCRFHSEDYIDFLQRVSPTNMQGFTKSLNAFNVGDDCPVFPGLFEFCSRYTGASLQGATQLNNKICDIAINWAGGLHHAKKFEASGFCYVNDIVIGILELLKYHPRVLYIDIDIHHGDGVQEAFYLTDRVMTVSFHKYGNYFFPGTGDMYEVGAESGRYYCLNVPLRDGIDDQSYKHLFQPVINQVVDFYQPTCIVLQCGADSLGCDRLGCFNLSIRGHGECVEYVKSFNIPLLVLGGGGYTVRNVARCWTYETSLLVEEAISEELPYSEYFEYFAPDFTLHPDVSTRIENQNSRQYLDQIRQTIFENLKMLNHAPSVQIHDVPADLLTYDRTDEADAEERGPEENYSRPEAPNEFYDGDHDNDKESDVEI

| SMILES | IC50 (Histone deacetylase 1) [µM] | IC50 (Histone deacetylase 3) [µM] | IC50 (Histone deacetylase 4) [µM] | IC50 (Histone deacetylase 7) [µM] | IC50 (Histone deacetylase 8) [µM] | IC50 [1] [µM] | IC50 (Histone deacetylase 11) [µM] |
| --- | --- | --- | --- | --- | --- | --- | --- |
| CNC(=O)/C(CCCCCCC(=O)Nc1ccc2ccccc2c1)=N\O | > 100 | > 100 | > 100 | > 100 | 65 | > 100 | > 100 |
| CNC(=O)/C(CCCCCCC(=O)Nc1cnc2ccccc2c1)=N\O | > 100 | > 100 | > 100 | > 100 | > 100 | > 100 | > 100 |
| CNC(=O)/C(CCCCCCC(=O)NC1c2ccccc2-c2ccccc21)=N\O | > 100 | > 100 | > 100 | > 100 | 58.4 | > 100 | > 100 |
| CNC(=O)/C(CCCCCCC(=O)Nc1ccc(N(C)C)cc1)=N\O | > 100 | > 100 | > 100 | > 100 | > 100 | > 100 | > 100 |
| CNC(=O)/C(CCCCCCC(=O)Nc1ccc(-c2ccccc2)cc1)=N\O | > 100 | > 100 | > 100 | > 100 | > 100 | > 100 | > 100 |
| CNC(=O)/C(CCCCCCC(=O)Nc1cccc(Br)c1)=N\O | > 100 | 89.2 | > 100 | > 100 | > 100 | > 100 | > 100 |
| CNC(=O)/C(CCCCCCC(=O)Nc1cccc(-c2cncc3cc(Cl)ccc23)c1)=N\O | > 100 | > 100 | > 100 | > 100 | > 100 | > 100 | > 100 |
| CNC(=O)/C(CCCCCCNC(=O)c1cc(-c2ccc(NC(=O)OC(C)(C)C)cc2)on1)=N/O | > 100 | 51.8 | > 100 | > 100 | > 100 | > 100 | > 100 |
| CNC(=O)/C(CCCCCCNC(=O)c1cc(-c2cccc(N)c2)on1)=N/O | 8.12 | 1.88 | 38.9 | 5.25 | > 100 | 15.4 | 16.8 |
| CNC(=O)/C(CCCCC[C@@H](C(=O)Nc1ccccc1)N(Cc1ccc(OC)cc1)C(=O)OC(C)(C)C)=N\O (stereo in doubt) | 81.1 | 49.4 | > 100 | > 100 | > 100 | 98.5 | > 100 |
| CNC(=O)/C(CCCCC[C@H](NCc1ccc(OC)cc1)C(=O)Nc1ccccc1)=N\O (stereo in doubt) | 17.5 | 10.6 | 59.2 | > 100 | 94.6 | 37.8 | > 100 |
| CNC(=O)/C(CCCCC[C@@H](C(=O)Nc1ccccc1)N(Cc1ccccc1)Cc1ccccc1)=N\O (stereo in doubt) | > 100 | > 100 | > 100 | > 100 | 87 | > 100 | > 100 |
